Source: patent US20070219174A1, “METHODS OF TREATING CANCER USING HYPOFRACTIONATED RADIATION AND TEXAPHYRINS” (Pharmacyclics, Inc., priority 2006, published 2007)

Experiments:
[1] = test system: tumors; settings: clinical results, magnetic resonance imaging; cited from earlier work
[2] = test system: brain metastases; settings: clinical results, MRI long after administration; cited from earlier work
[3] = test system: brain metastases; experiment: MRI of brain metastases after MGd (FIG. 1A, 1B); format: in vivo, human
From the text: In particular, sections 20, 21, and 22 on the right panel (MGd+standard contrast) show brain metastases not visible in sections 20, 21, and 22 on the left panel (standard Gd contrast).

[4] = test system: brain metastases from solid tumors; settings: patients with brain metastases from solid tumors receiving WBRT; cited from earlier work
[5] = test system: tumors; settings: cited from earlier work

Structure (SMILES) | biolocalization in tumors [1] | tumor selectivity, depiction of brain metastases at MRI [2] | MRI enhancement of brain metastases versus standard Gd contrast ([3]; FIG. 1A, MGd+standard contrast vs standard Gd contrast) | localization in brain metastases on MRI ([3]; FIG. 1B, brain metastases from NSCLC, post MGd without contrast) | neurological progression incl. neurologic and neurocognitive function [4] | accumulation in tumors ([5]; clinical results) | well tolerated dose ([5]; clinical results) | radiologic response rate ([5]; combined with WBRT of 30 Gy in 10 fractions)
CC(=O)[O-].CC(=O)[O-].CCc1c(CC)c2cc3nc(cnc4cc(OCCOCCOCCOC)c(OCCOCCOCCOC)cc4ncc4nc(cc1[n-]2)C(CCCO)=C4C)C(C)=C3CCCO.O.[Gd+3] [Gd-Tex, Gadolinium Texaphyrin] | selective biolocolization in tumors | tumor selective | – | – | – | – | – | –
CC(=O)[O-].CC(=O)[O-].CCc1c(CC)c2cc3nc(cnc4cc(OCCOCCOCCOC)c(OCCOCCOCCOC)cc4ncc4nc(cc1[n-]2)C(CCCO)=C4C)C(C)=C3CCCO.O.[Gd+3] [MGd, motexafin gadolinium] | – | – | enhances brain metastases not visible with standard Gd contrast | localization in brain metastases from NSCLC | provides benefit to patient's neurological progression | selectively accumulated in tumors | up to 6.3 mg/kg | high radiologic response rate
